pIC50: −log10 of the molar value. Read-outs that look alike come from different tables or passages of the source.

Assay [1] addresses T1, tubulin/RB3-stathmin-like-domain (RB3-SLD-tdm) complex (Sus scrofa, UniProt P02550+P02554).
T1 construct: purchased Cytoskeleton, Inc. T240; host or cells: RB3-SLD was made in house in E. coli
The assay is described as follows: Tubulin Peptide-Binding Site Competition Assay (fluorescence polarization). Details: species or system Porcine. The settings on record: FP competition with BODIPY-labeled vinca peptide probe; read after five hours at 22° C.; read-out: Tubulin Peptide-Binding Site Competition Assay IC50. The method, boiled down: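 The BODIPY vinca-peptide probe was premixed with test compound and then added to porcine tubulin/RB3-SLD, at final concentrations of 3 nM probe, 6 nM tubulin and 100 nM RB3-SLD. The buffer was PIPES pH 7.0 with Tween 20, MgCl2 and EGTA, and 11-point dilutions were run in duplicate. IC50 was fitted from the fluorescence polarization decrease and converted to Ki.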

Assay [2] relates to N87 (gastric cancer) cells. The assay can be described thus: In vitro cell assay (MTS cell viability), N87. The settings on record: free compounds, 96 hours after treatment. It counts as cell-based. As to the method: (§1) In Vitro Cell Assay Procedure
(§2) Target expressing (BT474 (breast cancer), N87 (gastric cancer), HCC1954 (breast cancer), MDA-MB-361-DYT2 (breast cancer)) or non-expressing (HT-29) cells were seeded in 96-well cell culture plates for 24 hours before treatment. Cells were treated with 3-fold serially diluted antibody-drug conjugates or free compounds (i. e. no antibody conjugated to the drug) in duplicate at 10 concentrations. Cell viability was determined by CellTiter 96® AQueous One Solution Cell Proliferation MTS Assay (Promega, Madison Wis.) 96 hours after treatment. Relative cell viability was determined as percentage of untreated control. IC50 values were calculated using a four parameter logistic model #203 with XLfit v4. 2 (IDBS, Guildford, Surry, UK).

Assay [3] has as its system MDA-MB-361-DYT2 (breast cancer) cells. The assay can be described thus: In vitro cell assay (MTS cell viability), MDA-MB-361-DYT2. It counts as cell-based. The following applies: free compounds, 96 hours after treatment. As to the method:
as §1, §2

In a further assay the test system is HT-29 cells. The assay can be described thus: In vitro cell assay (MTS cell viability), HT-29 (target non-expressing). It counts as cell-based. The following applies: free compounds, 96 hours after treatment, read-out: HT29 IC50. As for the experimental part:
as §1, §2

For the compound `CC[C@H](C)[C@H](NC(=O)[C@@]1(C)CCCN1C)C(=O)N(C)[C@H](C[C@@H](OC(C)=O)c1nc(C(=O)N[C@@H](Cc2ccccc2)C[C@H](C)C(=O)OC)cs1)C(C)C` [#B5, 1,2-dimethyl-D-prolyl-N-[(1R,3R)-1-(acetyloxy)-1-(4-{[(2R,4S)-5-methoxy-4-methyl-5-oxo-1-phenylpentan-2-yl]carbamoyl}-1,3-thiazol-2-yl)-4-methylpentan-3-yl]-N-methyl-L-isoleucinamide], the negative logarithm of the IC50 (pIC50) in assay [1] is 7.65; in assay [2] (96 h) it was 9.12; in assay [3] (96 h) it was 9.44; with HT-29 cells (Homo sapiens, HT-29, 96 h), 8.96.
`CC[C@H](C)[C@H](NC(=O)[C@@]1(C)CCCN1C)C(=O)N(C)[C@H](C[C@@H](OC(C)=O)c1nc(C(=O)N[C@@H](Cc2ccccc2)c2nccs2)cs1)C(C)C` [#B78, 1,2-dimethyl-D-prolyl-N-[(1R,3R)-1-(acetyloxy)-4-methyl-1-(4-{[(1S)-2-phenyl-1-(1,3-thiazol-2-yl)ethyl]carbamoyl}-1,3-thiazol-2-yl)pentan-3-yl]-N-methyl-L-isoleucinamide]: the negative logarithm of the IC50 (pIC50) is 8.03 in assay [1]; 7.40 in assay [2] (96 h); 7.70 in assay [3] (96 h); 7.84 in the assay on HT-29 cells (Homo sapiens, HT-29, 96 h).
In the case of `CC[C@H](C)[C@H](NC(=O)C12CC(CCN1C)C2)C(=O)N(C)[C@H](C[C@@H](OC(C)=O)c1nc(C(=O)N[C@@H](Cc2ccccc2)C[C@H](C)C(=O)OC)cs1)C(C)C` [#B14, methyl (2S,4R)-4-[({2-[(1R,3R)-1-(acetyloxy)-4-methyl-3-(methyl{N-[(2-methyl-2-azabicyclo[3.1.1]hept-1-yl)carbonyl]-L-isoleucyl}amino)pentyl]-1,3-thiazol-4-yl}carbonyl)amino]-2-methyl-5-phenylpentanoate], the pIC50 was 7.94 in assay [1]; 9.47 in assay [2] (96 h); 10.77 in assay [3] (96 h); 10.20 with HT-29 cells (Homo sapiens, HT-29, 96 h).
For `CC[C@H](C)[C@H](NC(=O)[C@@]1(C)CCCN1C)C(=O)N(C)[C@H](C[C@@H](OC(C)=O)c1nc(C(=O)N[C@@H](Cc2ccc(N)cc2)C[C@H](C)C(=O)O)cs1)C(C)C` [#B9, 1,2-dimethyl-D-prolyl-N-[(1R,3R)-1-(acetyloxy)-1-(4-{[(2R,4S)-1-(4-aminophenyl)-4-carboxypentan-2-yl]carbamoyl}-1,3-thiazol-2-yl)-4-methylpentan-3-yl]-N-methyl-L-isoleucinamide], the negative logarithm of the IC50 (pIC50) in assay [1] is 8.60; in assay [2] (96 h), 8.97; in assay [3] (96 h), 9.12; with HT-29 cells (Homo sapiens, HT-29, 96 h) it was 9.19.
For the compound `CC[C@H](C)[C@H](NC(=O)[C@@]1(C)CCCN1C)C(=O)N(C)[C@H](C[C@@H](OC(C)=O)c1nc(C(=O)N[C@@H](Cc2ccc(N)cc2)c2nccs2)cs1)C(C)C` [#B80, 1,2-dimethyl-D-prolyl-N-[(1R,3R)-1-(acetyloxy)-1-(4-{[(1S)-2-(4-aminophenyl)-1-(1,3-thiazol-2-yl)ethyl]carbamoyl}-1,3-thiazol-2-yl)-4-methylpentan-3-yl]-N-methyl-L-isoleucinamide], the pIC50 was 8.19 in assay [1]; 7.73 in assay [2] (96 h); 8.38 in assay [3] (96 h); 8.33 in the assay with HT-29 cells (Homo sapiens, HT-29, 96 h).
The matching figures for `CC[C@H](C)[C@H](NC(=O)[C@@]1(C)CCCN1C)C(=O)N(C)[C@H](C[C@@H](OC(C)=O)c1nc(C(=O)N[C@@H](Cc2ccccc2)C(O)c2nccs2)cs1)C(C)C` (stereo partly drawn) [#B62, 1,2-dimethyl-D-prolyl-N-[(1R,3R)-1-(acetyloxy)-1-(4-{[(2S)-1-hydroxy-3-phenyl-1-(1,3-thiazol-2-yl)propan-2-yl]carbamoyl}-1,3-thiazol-2-yl)-4-methylpentan-3-yl]-N-methyl-L-isoleucinamide]: 8.33, 7.98, 8.58 and 8.65.
The matching figures for `CC[C@H](C)[C@H](NC(=O)C12CCC(CC1)N2C)C(=O)N(C)[C@H](C[C@@H](OC(C)=O)c1nc(C(=O)N[C@@H](Cc2ccccc2)C[C@H](C)C(=O)OC)cs1)C(C)C` [#B13, methyl (2S,4R)-4-[({2-[(1R,3R)-1-(acetyloxy)-4-methyl-3-{methyl[(2S,3S)-3-methyl-2-{[(7-methyl-7-azabicyclo[2.2.1]hept-1-yl)carbonyl]amino}pentanoyl]amino}pentyl]-1,3-thiazol-4-yl}carbonyl)amino]-2-methyl-5-phenylpentanoate]: 8.43, greater than 10.21, greater than 10.44 and greater than 10.66.
`CC[C@H](C)[C@H](NC(=O)[C@@]1(C)CCCN1C)C(=O)N(C)[C@H](C[C@@H](NC(C)=O)c1nc(C(=O)N[C@@H](Cc2ccc(N)cc2)C[C@H](C)C(=O)O)cs1)C(C)C` [#B28, 1,2-dimethyl-D-prolyl-N-[(1R,3R)-1-(acetylamino)-1-(4-{[(2R,4S)-1-(4-aminophenyl)-4-carboxypentan-2-yl]carbamoyl}-1,3-thiazol-2-yl)-4-methylpentan-3-yl]-N-methyl-L-isoleucinamide]: the pIC50 in assay [2] (96 h) was less than 7.00; in assay [3] (96 h), 7.09; with HT-29 cells (Homo sapiens, HT-29, 96 h), 7.13.
The matching figures for `CC[C@H](C)[C@H](NC(=O)[C@@]1(C)CCCN1C)C(=O)N(C)[C@H](C[C@@H](NC(C)=O)c1nc(C(=O)N[C@@H](Cc2ccccc2)C[C@H](C)C(=O)OC)cs1)C(C)C` [#B20, 1,2-dimethyl-D-prolyl-N-[(1R,3R)-1-(acetylamino)-1-(4-{[(2R,4S)-5-methoxy-4-methyl-5-oxo-1-phenylpentan-2-yl]carbamoyl}-1,3-thiazol-2-yl)-4-methylpentan-3-yl]-N-methyl-L-isoleucinamide]: 8.21, 8.59 and 8.47.
Turning to `CC[C@H](C)[C@H](NC(=O)[C@]1(C)CCCCN1C)C(=O)N(C)[C@H](C[C@@H](OC(C)=O)c1nc(C(=O)N[C@@H](Cc2ccc(N)cc2)C[C@H](C)C(=O)O)cs1)C(C)C` [#B23, (2S,4R)-4-{[(2-{(1R,3R)-1-(acetyloxy)-3-[(N-{[(2S)-1,2-dimethylpiperidin-2-yl]carbonyl}-L-isoleucyl)(methyl)amino]-4-methylpentyl}-1,3-thiazol-4-yl)carbonyl]amino}-5-(4-aminophenyl)-2-methylpentanoic acid], the negative logarithm of the IC50 (pIC50) was 8.57 in assay [2] (96 h); 8.70 in assay [3] (96 h); 8.63 in the assay with HT-29 cells (Homo sapiens, HT-29, 96 h).
The matching figures for `CCOC(=O)[C@@H](C)C[C@H](Cc1ccccc1)NC(=O)c1csc([C@@H](C[C@H](C(C)C)N(C)C(=O)[C@@H](NC(=O)[C@@]2(C)CCCN2C)[C@@H](C)CC)NC(C)=O)n1` [#B18, 1,2-dimethyl-D-prolyl-N-[(1R,3R)-1-(acetylamino)-1-(4-{[(2R,4S)-5-ethoxy-4-methyl-5-oxo-1-phenylpentan-2-yl]carbamoyl}-1,3-thiazol-2-yl)-4-methylpentan-3-yl]-N-methyl-L-isoleucinamide]: less than 7.00, less than 7.00 and less than 7.00.
In the case of `CCNC(=O)O[C@H](C[C@H](C(C)C)N(C)C(=O)[C@@H](NC(=O)[C@]1(C)CCCCN1C)[C@@H](C)CC)c1nc(C(=O)N[C@@H](Cc2ccc(N)cc2)C[C@H](C)C(=O)O)cs1` [#B25, (2S,4R)-5-(4-aminophenyl)-4-{[(2-{(1R,3R)-3-[(N-{[(2S)-1,2-dimethylpiperidin-2-yl]carbonyl}-L-isoleucyl)(methyl)amino]-1-[(ethylcarbamoyl)oxy]-4-methylpentyl}-1,3-thiazol-4-yl)carbonyl]amino}-2-methylpentanoic acid], the pIC50 in assay [2] is 8.20; in assay [3], 8.34; in the assay on HT-29 cells, 8.23.
In the case of `CC[C@H](C)[C@H](NC(=O)[C@@]1(C)CCCN1C)C(=O)N(C)[C@H](C[C@@H](NC(C)=O)c1nc(C(=O)N[C@@H](Cc2ccccc2)C[C@H](C)C(=O)O)cs1)C(C)C` [#B19, 1,2-dimethyl-D-prolyl-N-[(1R,3R)-1-(acetylamino)-1-(4-{[(2R,4S)-4-carboxy-1-phenylpentan-2-yl]carbamoyl}-1,3-thiazol-2-yl)-4-methylpentan-3-yl]-N-methyl-L-isoleucinamide], the pIC50 in assay [2] (96 h) was 7.42; in assay [3] (96 h), 7.76; with HT-29 cells (Homo sapiens, HT-29, 96 h), 7.84.
The matching figures for `CCOP(=O)(OCC)[C@@H](C)C[C@H](Cc1ccc(N)cc1)NC(=O)c1csc([C@@H](C[C@H](C(C)C)N(C)C(=O)[C@@H](NC(=O)[C@H]2CCCCN2C)[C@@H](C)CC)OC(C)=O)n1` [#B11, (1R,3R)-1-(4-{[(2S,4S)-1-(4-aminophenyl)-4-(diethoxyphosphoryl)pentan-2-yl]carbamoyl}-1,3-thiazol-2-yl)-4-methyl-3-[methyl(N-{[(2R)-1-methylpiperidin-2-yl]carbonyl}-L-isoleucyl)amino]pentyl Acetate]: 9.04, 9.22 and 9.02.

As a reminder, the pIC50 is −log10 of the IC50, conventionally taken in molar units.

The values above are taken from US10723727B2, “Tubulysin analogs and methods for their preparation” (priority 2016, dated 2020).
